According to PubChem BioAssay (NCI):
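All cell lines were grown in 96-well plates and treated with compound for 48 hours. Abbreviation: GI50, concentration required for 50% inhibition of growth. Definition used: TGI = concentration required for complete inhibition of growth.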

Experiments:
Experiment in all cases: DTP human tumour cell line panel, 48 h
[1] = tested on: 786-0 renal
[2] = tested on: A498 renal
[3] = tested on: CAKI-1 renal
[4] = tested on: COLO 205 colon
[5] = tested on: K-562 leukemia
[6] = tested on: MOLT-4 leukemia
[7] = tested on: NCI-H522 lung
[8] = tested on: OVCAR-5 ovarian
[9] = tested on: SF-268 CNS
[10] = tested on: SF-295 CNS
[11] = tested on: SK-MEL-2 melanoma
[12] = tested on: SN12C renal
[13] = tested on: SNB-19 CNS
[14] = tested on: SNB-75 CNS
[15] = tested on: UO-31 renal
[16] = tested on: NCI-H460 lung
[17] = tested on: UACC-62 melanoma

Compound	TGI [1] [µM]	TGI [2] [µM]	TGI [3] [µM]	TGI [4] [µM]	TGI [5] [µM]	TGI [6] [µM]	TGI [7] [µM]	TGI [8] [µM]	TGI [9] [µM]	TGI [10] [µM]	TGI [11] [µM]	TGI [12] [µM]	TGI [13] [µM]	TGI [14] [µM]	TGI [15] [µM]	TGI [16] [µM]	TGI [17] [µM]	GI50 [9] [µM]
C/C=C/C(=O)N1C(=O)OC[C@@H]1c1ccccc1	35	45.7	32.6	39.1	56	47.3	39.1	31.7	44.1	> 100	36.9	37.2	41.4	27.1	35.2	–	–	–
Cc1ccc(S(=O)(=O)N2CCCC2C(=O)O[C@H]2CC[C@H]3CC=C[C@H]32)cc1 (stereo partly drawn)	> 31.6	89	> 100	–	78.9	33.4	–	> 100	> 100	> 100	–	> 100	> 100	> 100	> 100	91.4	> 100	–
O=C(O)CCCOc1cc(-c2ccccc2F)nc2cc3c(cc12)OCO3	> 100	–	> 100	27.4	–	71.3	–	> 100	> 100	–	> 100	> 100	–	> 100	–	–	> 100	16.3
CCOC(=O)c1cnc(-n2[nH]c3c(c2=O)CCCC3)[nH]c1=O	> 100	> 100	> 100	> 100	> 100	> 100	> 100	> 100	> 100	> 100	> 100	> 100	> 100	–	> 100	> 100	95.4	–
NNc1[nH]c(=S)[nH]c1C(N)=O	> 100	> 100	–	> 100	–	> 100	> 100	> 100	> 100	> 100	> 100	> 100	–	> 100	> 100	> 100	> 100	–
COc1cc(N(CCC#N)CCC#N)ccc1/C(N=Nc1ccccc1)=N/NC(=O)c1cc(Br)ccc1O	> 100	–	61.4	29.8	42.7	38.3	67.9	> 100	> 100	> 100	85.1	96.6	> 100	> 100	57.5	51.1	46.7	–
O=c1cc(-c2ccc(Cl)cc2)oc2cc(OCCCOc3ccc4c(=O)cc(-c5ccc(Cl)cc5)oc4c3)ccc12	> 100	–	> 100	> 100	> 100	> 100	> 100	> 100	> 100	> 100	> 100	> 100	> 100	> 100	–	> 100	> 100	–
O=C(/C=C/c1ccc(O)c(O)c1O)OCCc1ccccc1	35.5	> 100	> 100	64.5	37.3	53.8	54.9	> 100	> 100	35.5	> 100	34.4	> 100	–	78.1	42.7	> 100	–
O=C1NC(N2CCCC(CO)C2)=N/C1=C\c1ccc(Cl)cc1 (stereo not drawn)	> 100	–	> 100	> 100	> 100	> 100	> 100	> 100	> 100	> 100	> 100	> 100	> 100	> 100	> 100	–	> 100	–
[N-]=[N+]=NC(CBr)c1cn([C@H]2C[C@H](O)[C@@H](CO)O2)c(=O)[nH]c1=O (stereo partly drawn)	> 100	–	> 100	> 100	> 100	> 100	> 100	> 100	–	> 100	> 100	> 100	> 100	> 100	> 100	> 100	> 100	–
COc1cc2c(cc1OC)C(N)CC2=O (stereo not drawn)	> 100	> 100	> 100	> 100	> 100	> 100	> 100	> 100	> 100	> 100	> 100	> 100	> 100	> 100	> 100	–	> 100	–
O=C(O)c1ccccc1/C=N/NC1=NCCCCN1	> 100	> 100	–	> 100	> 100	> 100	> 100	> 100	> 100	> 100	> 100	–	> 100	> 100	> 100	> 100	> 100	–
COc1cc2c(cc1OC)C(=O)C(C1=C(SC(=N)N)C(=O)c3cc(OC)c(OC)cc31)C2 (stereo not drawn)	> 100	–	> 100	> 100	> 100	> 100	> 100	> 100	> 100	> 100	> 100	> 100	> 100	> 100	> 100	> 100	> 100	–
Cc1cc(OCC(=O)N/N=C/C(Br)=C/c2ccccc2)nc(SCC(=O)N/N=C/C(Br)=C/c2ccccc2)n1	> 100	> 100	> 100	> 100	> 100	–	> 100	> 100	> 100	> 100	–	> 100	> 100	–	> 100	> 100	> 100	–
O=C(CCN1CCOCC1)Nc1ccc2sc3ccccc3c(=O)c2n1	> 100	–	63.8	> 100	> 100	–	45.9	> 100	> 100	> 100	> 100	> 100	> 100	85.1	> 100	> 100	> 100	–
COc1cc(O)c2c(=O)cc(C3(O)C=CC(=O)C=C3)oc2c1	0.876	11.1	–	0.906	11.1	> 100	0.113	–	1.72	2.09	2.66	–	–	3.06	0.993	2.06	0.786	–
COc1ccc(C2SC(C)C(=O)N2c2nc(-c3nc(-c4ccc(Cl)cc4)cs3)cs2)cc1 (stereo not drawn)	> 100	–	> 100	> 100	> 100	> 100	> 100	> 100	> 100	> 100	–	> 100	> 100	> 100	> 100	> 100	> 100	–
O=C=NCCCCCCN1C(=O)N2C(c3ccccc3)N(CCCCCCN=C=O)C(=O)N2C1c1ccccc1 (stereo not drawn)	> 100	> 100	> 100	> 100	> 100	> 100	–	> 100	> 100	> 100	> 100	> 100	> 100	> 100	> 100	> 100	–	–
CC(C)C(/C=C/c1ccc(Br)cc1)=N\NC(N)=O	> 100	–	> 100	> 100	> 100	> 100	> 100	> 100	> 100	> 100	> 100	> 100	> 100	> 100	66.6	> 100	> 100	–
O=c1cc(-c2ccccc2)oc2cc(OCCSCCCCCCCCCCSCCOc3ccc4c(=O)cc(-c5ccccc5)oc4c3)ccc12	> 100	–	> 100	> 100	> 100	> 100	> 100	–	> 100	> 100	> 100	> 100	> 100	> 100	> 100	–	> 100	–
CCCCCCCN1C(=O)C(O)(c2ccc(C3(O)C(=O)N(CCCCCCC)c4ccccc43)s2)c2ccccc21 (stereo not drawn)	3.61	–	–	3.21	7.67	4.16	–	3.24	3.97	3.42	2.93	3.42	8.7	17.3	3.14	3.49	4.06	–
O=C(Nc1ccccc1F)c1cc2ccc(O)cc2oc1=Nc1cccc(C(F)(F)F)c1	17.8	38.3	19.7	33	> 100	67.8	18.7	> 100	13.2	> 100	36	–	> 100	–	15.5	> 100	21	–
COc1c(O)c2c(=O)cc(OC)c3c4c(OC)cc(=O)c5c(O)c(OC)c6c(c(c1C(C(C)=O)C6C(C)O)c23)c54 (stereo not drawn)	3.81	28.3	–	–	–	0.443	0.634	1.28	3.92	2.05	–	2.94	0.413	1.42	1.03	0.688	1.01	–
NC(N)=NCCCC(NC(=O)OCCCCCCn1ccc(N)nc1=O)C(=O)O (stereo not drawn)	> 100	> 100	> 100	> 100	> 100	> 100	–	> 100	> 100	> 100	> 100	> 100	> 100	> 100	> 100	> 100	> 100	–
OC1CN2Cc3cc4c(cc3[C@]13C=C[C@@H](O)CC23)OCO4 (stereo partly drawn)	> 100	> 100	> 100	> 100	> 100	> 100	> 100	> 100	> 100	> 100	> 100	> 100	> 100	–	> 100	45.6	> 100	–
O=C(c1ccc(Br)cc1)n1c2ccc(Br)cc2c2nc3ccccc3nc21	> 100	–	> 100	> 100	> 100	> 100	> 100	> 100	> 100	> 100	> 100	> 100	> 100	> 100	> 100	> 100	> 100	–
NC(Cc1ccccc1)(C(=O)O)C(=O)O	> 100	> 100	> 100	> 100	> 100	> 100	> 100	> 100	> 100	> 100	> 100	> 100	> 100	–	> 100	> 100	> 100	–
Cc1ccc(S(=O)(=O)NC(=O)Nc2ccc(S(N)(=O)=O)cc2S(N)(=O)=O)cc1	> 100	–	> 100	> 100	> 100	> 100	> 100	> 100	> 100	> 100	> 100	> 100	> 100	> 100	> 100	–	> 100	–
CCOC(=O)C1=C(C)N(NC(N)=O)C2(O)CCCC(=O)C12C (stereo not drawn)	–	> 100	> 100	> 100	–	–	> 100	> 100	–	> 100	> 100	> 100	> 100	> 100	–	–	> 100	–
O=C1/C(=C/c2ccco2)N=C(c2ccccc2)N1c1cc2cc(Sc3ccccc3)ccc2[nH]1	> 25	> 25	> 25	> 25	> 25	> 25	> 25	> 25	> 25	–	> 25	> 25	> 25	> 25	> 25	–	> 25	–
